# Experimental data reported in patent US20060264460A1 (Wyeth, priority 2005, published 2006).
# pIC50: −log10 of the molar value.
# Target: T1, human Cot/Tpl2 kinase (Homo sapiens, UniProt P41279)
# T1 construct: human Cot/Tpl2 kinase construct encoding residues 30-398; 6His (N); made in house; host or cells: Sf9 insect cells, baculovirus system (BD Biosciences)
# Assay: Tpl2/Cot kinase assay: GST-MEK1 phosphorylation detected by ELISA (DELFIA Eu)
# Assay type: biochemical
# Conditions: 0.4 nM Tpl2, 35 nM GST-MEK1, 50 uM ATP, 1 h at 30° C.
# Summary of the method: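 Substrate phosphorylation (GST-MEK1 Ser217/221) quantified by DELFIA europium ELISA, yielding IC50 values. Reaction: 1 h at 30° C, pH 7.2 MOPS buffer, 50 uM ATP, 35 nM GST-MEK1, 0.4 nM monomeric His-Tpl2 purified from Sf9 cells, compounds at 1% final DMSO; stopped with EDTA.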
# T1 sequence (P41279 30-398): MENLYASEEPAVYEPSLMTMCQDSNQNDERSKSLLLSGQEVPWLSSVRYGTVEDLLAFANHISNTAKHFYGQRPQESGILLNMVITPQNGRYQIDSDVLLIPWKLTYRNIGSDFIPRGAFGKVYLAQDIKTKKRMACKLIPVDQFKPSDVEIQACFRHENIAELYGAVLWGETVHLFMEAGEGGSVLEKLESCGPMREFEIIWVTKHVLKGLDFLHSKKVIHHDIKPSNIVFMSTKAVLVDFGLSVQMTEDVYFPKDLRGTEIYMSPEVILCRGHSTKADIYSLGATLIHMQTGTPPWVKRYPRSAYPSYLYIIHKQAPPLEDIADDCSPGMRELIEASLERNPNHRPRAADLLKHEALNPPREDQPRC
row,SMILES,pIC50
1,"N#Cc1cnc2c(Br)cc(NCc3cnc[nH]3)cc2c1NC1CCCC1 [Example 96, 6-((1H-imidazol-5-yl)methylamino)-8-bromo-4-(cyclopentylamino)quinoline-3-carbonitrile]",6.36
2,"N#Cc1cnc2c(Br)cc(NCc3cnc[nH]3)cc2c1NC1CCCCCC1 [Example 97, 6-((1H-imidazol-5-yl)methylamino)-8-bromo-4-(cycloheptylamino)quinoline-3-carbonitrile]",6.64
3,"CC(C)(C)Nc1c(C#N)cnc2c(Br)cc(NCc3cnc[nH]3)cc12 [Example 98, 6-((1H-imidazol-5-yl)methylamino)-8-bromo-4-(tert-butylamino)quinoline-3-carbonitrile]",5.82
4,"N#Cc1cnc2c(Br)cc(NCc3cccc[n+]3[O-])cc2c1Nc1ccc(F)c(Cl)c1 [Example 101, 8-bromo-4-(3-chloro-4-fluorophenylamino)-6-(1-oxypyridin-2-ylmethylamino)quinoline-3-carbonitrile]",8.39
5,"CC(C)(C)Nc1c(C#N)cnc2c(Br)cc(NCc3cccc[n+]3[O-])cc12 [Example 104, 8-bromo-4-(tert-butylamino)-6-(1-oxypyridin-2-ylmethylamino)quinoline-3-carbonitrile]",5.82
6,"Cc1ncc(CNc2cc(Br)c3ncc(C#N)c(Nc4ccc(F)c(Cl)c4)c3c2)[nH]1 [Example 105, 8-bromo-4-(3-chloro-4-fluorophenylamino)-6-((2-methyl-1H-imidazol-5-yl)methylamino)quinoline-3-carbonitrile]",6.77
7,"N#Cc1cnc2c(Br)cc(NCc3cnc(-c4ccccc4)[nH]3)cc2c1Nc1ccc(F)c(Cl)c1 [Example 106, 8-bromo-4-(3-chloro-4-fluorophenylamino)-6-((2-phenyl-1H-imidazol-5-yl)methylamino)quinoline-3-carbonitrile]",5.23
8,"CCCCc1ncc(CNc2cc(Br)c3ncc(C#N)c(Nc4ccc(F)c(Cl)c4)c3c2)[nH]1 [Example 107, 8-bromo-6-((2-butyl-1H-imidazol-5-yl)methylamino)-4-(3-chloro-4-fluorophenylamino)quinoline-3-carbonitrile]",6.05
9,"COC(=O)c1nc[nH]c1CNc1cc(Br)c2ncc(C#N)c(Nc3ccc(F)c(Cl)c3)c2c1 [Example 110, Methyl 5-((8-bromo-4-(3-chloro-4-fluorophenylamino)-3-cyanoquinolin-6-ylamino)methyl)-1H-imidazole-4-carboxylate]",7.06

# The remaining lines, values ahead:
row,pIC50,SMILES
1,4.62,"N#Cc1cnc2ccc(NCc3cccnc3)cc2c1Nc1ccc(C(N)=O)cc1 [Example 99, 4-(3-cyano-6-(pyridin-3-ylmethylamino)quinolin-4-ylamino)benzamide]"
2,< 4.40,"N#Cc1cnc2c(-c3ccsc3)cc(NCc3cccnc3)cc2c1Nc1cccc(Cl)c1 [Example 100, 4-(3-chlorophenylamino)-6-(pyridin-3-ylmethylamino)-8-(thiophen-3-yl)quinoline-3-carbonitrile]"
3,5.89,"N#Cc1cnc2c(-c3ccoc3)cc(NCc3cccnc3)cc2c1Nc1ccc(F)c(Cl)c1 [Example 102, 4-(3-chloro-4-fluorophenylamino)-8-(furan-3-yl)-6-(pyridin-3-ylmethylamino)quinoline-3-carbonitrile]"
4,6.29,"CN(C)C(=O)CNc1ccc2ncc(C#N)c(Nc3ccc(F)c(Cl)c3)c2c1 [Example 103, 2-(4-(3-chloro-4-fluorophenylamino)-3-cyanoquinolin-6-ylamino)-N,N-dimethylacetamide]"
5,6.26,"CNC(=O)CNc1ccc2ncc(C#N)c(Nc3ccc(F)c(Cl)c3)c2c1 [Example 108, 2-(4-(3-chloro-4-fluorophenylamino)-3-cyanoquinolin-6-ylamino)-N-methylacetamide]"
6,5.66,"C/C=C/c1cc(NCc2cccnc2)cc2c(Nc3ccc(F)c(Cl)c3)c(C#N)cnc12 [Example 109, (E)-4-(3-chloro-4-fluorophenylamino)-8-(prop-1-enyl)-6-(pyridin-3-ylmethylamino)quinoline-3-carbonitrile]"
